The subject of experiment [1] is SRS-A release from lung tissue. Put plainly: Release of slow reacting substance of anaphylaxis (SRS-A) from sensitized lung tissue. The format is cell-based, Guinea-pigs. To be noted: Cavia porcellus, sensitized guinea-pig lung tissue, egg albumen 100 μg/ml; for inhibition at 0.01 µg/mL: 0.01 μg/ml; for inhibition at 0.1 µg/mL: 0.1 μg/ml. The method, then: Release of slow reacting substance of analphylaxis (SRS-A):
Guinea-pigs were sensitized with egg albumen, which was administered as a 10% solution, 100 mg both intraperitoneally and subcutaneously. Three to four weeks later the animals were killed by a blow on the head and the heart and lungs removed from the body and cleaned of blood. The lung tissue was dissected free from the heart, trachea and major bronchioles and then finely chopped. Portions of the lung tissue in 5 ml of Tyrode solution were preincubated with each test solution (50 μl) containing a test compound for 5 minutes at 37° C, to those were added 50 μl of egg albumen (100 μg/ml in a final concentration). The incubation mixture were further incubated for 15 minutes at 37° C. After centrifugation, the supernatant was assayed for SRS-A. The activity of SRS-A was assayed on the isolated guinea-pig ileum in the presence of atropine (5 × 10^-8 g/ml) and pyribenzamine (10^-7 g/ml). The percent inhibition was calculated using the following formula: [formula]

Experiment [2] has as its system histamine release from the peritoneal cavity. Description: Histamine release from the peritoneal cavity (dextran i.p.). The format is in vivo, male Wistar rats. To be noted: Rattus norvegicus, ip; dose required for 50% inhibition; test compound i.p., dextran 180 mg/kg i.p.; rats. As to the method: Histamine release from the peritoneal cavity:
The method used was similar to that described by Hanahoe et al. (T.H.P. Hanahoe, A. Holliman, D. Gordon and W. Wieczorek, J. Pharm. Pharmac. 24, 666 (1972)). Groups of ten male Wistar rats (200-230 g) were injected intraperitoneally with 1 ml normal saline (0.9%) containing different amounts of test compound. A half minutes later they received an intraperitoneal injection of dextran (180 mg/kg, molecular weight about 250,000) or saline as vehicle control. Five minutes later the animals were killed, the peritoneal fluid was collected and centrifuged, and the supernatant was assayed fluorophotometrically for histamine. […] The percent inhibition was calculated using the following formula: [formula] The ED50, the dose required for 50% inhibition, was calculated from the dose-responsive curve.

Experiment [3] shares this test system. To be noted: dextran-induced histamine release, in this experimental method (Hanahoe et al.); cited from earlier work.

For orientation: inhibition means the percentage by which the read-out fell short of the control. The term ED50 denotes the dose that gives a 50% effect, or the effect in half of the subjects. On to `O=c1c2cc(-c3nnn[nH]3)ccc2oc2ncccc12` [Compound A, 7-(5-1H-tetrazolyl)-5-oxo-5H-[1]benzopyrano[2,3-b]pyridine], for which, in experiment [1], the inhibition at 0.01 µg/mL is 25.2% and the inhibition at 0.1 µg/mL came to 35.3%. In addition, the ED50 in experiment [2] came to 1 µg/kg.
For `O=c1c2cccnc2oc2c(Cl)cc(-c3nnn[nH]3)cc12` [Compound B, 9-chloro-7-(5-1H-tetrazolyl)-5-oxo-5-H-[1]benzopyrano[2,3-b]-pyridine] the same measures were 19%, 22.6% and 0.25 µg/kg.
For `O=C(O)c1cc(=O)c2c(OCC(O)COc3cccc4oc(C(=O)O)cc(=O)c34)cccc2o1` [disodium cromoglycate], the “inhibition of the release of histamine” value in experiment [3] is on record as “inhibits markedly”.

Values taken from US4085111A, “1H-tetrazole derivatives” (Yoshitomi Pharmaceutical Industries, Ltd., priority 1974, dated 1978).
